{
  "source": "patent US20090110671A1",
  "about": "“AGENT FOR ENHANCHING THE PRODUCTION OF COLLAGEN AND IT'S USE” (priority 2005, published 2009)",
  "key": {"NHDF cells [1]": {"system": "NHDF cells", "test": "Experiment 2: collagen sedimented over cell surface and released in supernatant of NHDF cells, α,α-trehalose or maltose with AA-2G", "format": "cell-based, human", "settings": "relative to AA-2G = 100", "protocol": "Influence of α,α-trehalose and maltose on collagen production using NHDF cells was examined by the following experiment: Test solutions were prepared by dissolving either AA-2G; hydrous crystalline α,α-trehalose, a reagent grade specimen, commercialized by Hayashibara Biochemical Laboratories Inc., Okayama, Japan; or hydrous crystalline maltose, a reagent grade specimen, commercialized by Hayashibara Biochemical Laboratories Inc., Okayama; Japan, in […] The methods for culturing NHDF cells and quantifying the collagen-production level of the cells were conducted similarly as in Experiment 1. The collagen level in each culture supernatant of NHDF cells was determined in such a manner of collecting the culture supernatant and quantifying the collagen released in the supernatant by using “Sircol Collagen Quantification Kit”. As a control, D-MEM medium containing 50 μM AA-2G was used. These control and test solutions were respectively experimented using three wells, followed by calculating a mean value for collagen-production levels in the wells. The results are in Table 2 where the values are expressed with relative values for either or both of the levels of collagen, that had sedimented over the cell surfaces or released in the supernatants, in terms of their collagen-production levels of NHDF cells, which had been cultured in D-MEM medium containing 50 μM AA-2G, being regarded as 100."}, "[2]": {"system": "skin wrinkles/finely-wrinkles and flabby skin", "test": "Experiment 5: self-evaluation of lotions on skin wrinkles/finely-wrinkles and flabby skin, four months", "format": "in vivo, human", "settings": "4 months; for Evaluation A (remarkably efficacious) / Evaluation B (efficacious) / Evaluation C (slightly efficacious) / Evaluation D (inefficacious): lotion", "protocol": "The following experiment was conducted to examine the influence of α,α-trehalose or saccharide derivatives thereof and hyaluronic acid and/or chondroitin sulfate on the skin. Since there exists a relatively constant amount of L-ascorbic acid in vivo, the collagen production by L-ascorbic acid proceeds constantly. Based on the following basic formulation for lotion and the combination and composition in Table 5, 100 parts by weights of a lotion was prepared by adding to the basic formulation sodium hyaluronate, chondroitin sulfate, hydrous crystalline α,α-trehalose, a cosmetic grade specimen commercialized by Hayashibara Biochemical Laboratories Inc., Okayama, Japan, and “[…]”, a product name of a syrup having a solid content of about 75% and containing, on a dry solid basis, about 53% by weight of α-maltosyl α,α-trehalose and about 5% by weight of other saccharide derivatives of α,α-trehalose, and an adequate amount of refined water. In Table 5, the respective amounts of the added saccharide are expressed on a dry solid basis. The syrup containing saccharide derivatives of α,α-trehalose was added in an amount of the saccharide derivatives as shown in Table 5. Eleven women as volunteers, who had been suffering from skin wrinkles/finely-wrinkles or flabby skin, were allowed to wash their faces with any of the lotions having compositions in Table 5 three times a day for four months and then allowed to evaluate themselves about their face-skin conditions by comparing with those before use of the lotions."}, "NHDF cells [3]": {"system": "NHDF cells", "test": "Experiment 4: collagen production in NHDF cells, saccharides combined with hyaluronic acid and/or chondroitin sulfate", "format": "cell-based, human", "excerpt": "Influence of α,α-trehalose or a saccharide derivative thereof, or a combination use of any of these saccharides and hyaluronic acid and/or chondroitin sulfate on the collagen production by L-ascorbic acids was examined as follows. AA-2G and any one of hydrous crystalline α,α-trehalose, a reagent grade specimen commercialized by Hayashibara Biochemical Laboratories Inc., Okayama, Japan; α-maltosyl α,α-trehalose with a purity of at least 98% commercialized by Hayashibara Biochemical Laboratories Inc., Okayama, Japan; and “HALLODEX”, a product name of a syrup of saccharide derivatives of α,α-trehalose were dissolved in D-MEM medium to give final concentrations of 50 μM of AA-2G and 15.0 mg/ml of saccharides. Further, as another test solutions, those, which had been prepared similarly as in the above, were admixed with any one of hyaluronic acid, chondroitin sulfate, and a combination thereof to give respective concentrations of 1 mg/ml, 1 mg/ml, and 0.5 mg/ml of hyaluronic acid and chondroitin sulfate each. The medium supplemented with a syrup containing about 59%, d.s.b., of saccharide derivatives of α,α-trehalose was prepared to give a concentration of 15.0 mg/ml of the saccharide derivatives of α,α-trehalose contained in the syrup. The culture of NHDF cells and the quantification of collagen-production level thereof were carried out similarly as in Experiment 1. The results are in Table 4 where the values are expressed with relative values in terms of the collagen-production level of NHDF cells, being regarded as 100, when cultured in D-MEM medium containing AA-2G."}, "[4]": {"settings": "saccharide 0.2 mg/ml + 50 μM AA-2G"}, "[5]": {"settings": "saccharide 0.6 mg/ml + 50 μM AA-2G"}, "[6]": {"settings": "saccharide 1.7 mg/ml + 50 μM AA-2G"}, "[7]": {"settings": "saccharide 5.0 mg/ml + 50 μM AA-2G"}, "[8]": {"settings": "saccharide 15.0 mg/ml + 50 μM AA-2G"}, "[9]": {"settings": "added saccharide 0.05 part by weight, 3 times a day"}, "[10]": {"settings": "added saccharide 0.1 part by weight, 3 times a day"}, "[11]": {"settings": "added saccharide 1 part by weight, 3 times a day"}, "[12]": {"settings": "added saccharide 2 + chondroitin sulfate 0.5 part by weight"}, "[13]": {"settings": "added saccharide 2 + sodium hyaluronate 0.25 + chondroitin sulfate 0.25 part by weight"}, "[14]": {"settings": "added saccharide 2 + sodium hyaluronate 0.5 part by weight"}, "[15]": {"settings": "added saccharide 2 parts by weight, 3 times a day"}, "[16]": {"settings": "added saccharide 10 parts by weight, 3 times a day"}, "[17]": {"settings": "added saccharide 20 parts by weight, 3 times a day"}},
  "data": [
    {"smiles": "OC[C@H]1O[C@H](O[C@H]2O[C@H](CO)[C@@H](O)[C@H](O)[C@H]2O)[C@H](O)[C@@H](O)[C@@H]1O", "note": "[α,α-trehalose]", "values": [
      {"measurement": "Collagen-production level, In supernatant", "setting": "NHDF cells [1]; [4]", "value": 103},
      {"measurement": "Collagen-production level, Total", "setting": "NHDF cells [1]; [4]", "value": 101},
      {"measurement": "Collagen-production level, In supernatant", "setting": "NHDF cells [1]; [5]", "value": 203},
      {"measurement": "Collagen-production level, Total", "setting": "NHDF cells [1]; [5]", "value": 131},
      {"measurement": "Collagen-production level, In supernatant", "setting": "NHDF cells [1]; [6]", "value": 250},
      {"measurement": "Collagen-production level, Total", "setting": "NHDF cells [1]; [6]", "value": 154},
      {"measurement": "Collagen-production level, In supernatant", "setting": "NHDF cells [1]; [7]", "value": 232},
      {"measurement": "Collagen-production level, Total", "setting": "NHDF cells [1]; [7]", "value": 169},
      {"measurement": "Collagen-production level, In supernatant", "setting": "NHDF cells [1]; [8]", "value": 1058},
      {"measurement": "Collagen-production level, Total", "setting": "NHDF cells [1]; [8]", "value": 335},
      {"measurement": "Evaluation A (remarkably efficacious)", "setting": "[2]; [9]", "value": "0 number of volunteers"},
      {"measurement": "Evaluation B (efficacious)", "setting": "[2]; [9]", "value": "0 number of volunteers"},
      {"measurement": "Evaluation C (slightly efficacious)", "setting": "[2]; [9]", "value": "3 number of volunteers"},
      {"measurement": "Evaluation D (inefficacious)", "setting": "[2]; [9]", "value": "8 number of volunteers"},
      {"measurement": "Evaluation A (remarkably efficacious)", "setting": "[2]; [10]", "value": "0 number of volunteers"},
      {"measurement": "Evaluation B (efficacious)", "setting": "[2]; [10]", "value": "2 number of volunteers"},
      {"measurement": "Evaluation C (slightly efficacious)", "setting": "[2]; [10]", "value": "5 number of volunteers"},
      {"measurement": "Evaluation D (inefficacious)", "setting": "[2]; [10]", "value": "4 number of volunteers"},
      {"measurement": "Evaluation A (remarkably efficacious)", "setting": "[2]; [11]", "value": "2 number of volunteers"},
      {"measurement": "Evaluation B (efficacious)", "setting": "[2]; [11]", "value": "2 number of volunteers"},
      {"measurement": "Evaluation C (slightly efficacious)", "setting": "[2]; [11]", "value": "6 number of volunteers"},
      {"measurement": "Evaluation D (inefficacious)", "setting": "[2]; [11]", "value": "1 number of volunteers"},
      {"measurement": "Evaluation A (remarkably efficacious)", "setting": "[2]; [12]", "value": "3 number of volunteers"},
      {"measurement": "Evaluation B (efficacious)", "setting": "[2]; [12]", "value": "5 number of volunteers"},
      {"measurement": "Evaluation C (slightly efficacious)", "setting": "[2]; [12]", "value": "3 number of volunteers"},
      {"measurement": "Evaluation D (inefficacious)", "setting": "[2]; [12]", "value": "0 number of volunteers"},
      {"measurement": "Evaluation A (remarkably efficacious)", "setting": "[2]; [13]", "value": "6 number of volunteers"},
      {"measurement": "Evaluation B (efficacious)", "setting": "[2]; [13]", "value": "3 number of volunteers"},
      {"measurement": "Evaluation C (slightly efficacious)", "setting": "[2]; [13]", "value": "2 number of volunteers"},
      {"measurement": "Evaluation D (inefficacious)", "setting": "[2]; [13]", "value": "0 number of volunteers"},
      {"measurement": "Evaluation A (remarkably efficacious)", "setting": "[2]; [14]", "value": "3 number of volunteers"},
      {"measurement": "Evaluation B (efficacious)", "setting": "[2]; [14]", "value": "4 number of volunteers"},
      {"measurement": "Evaluation C (slightly efficacious)", "setting": "[2]; [14]", "value": "3 number of volunteers"},
      {"measurement": "Evaluation D (inefficacious)", "setting": "[2]; [14]", "value": "1 number of volunteers"},
      {"measurement": "Evaluation A (remarkably efficacious)", "setting": "[2]; [15]", "value": "2 number of volunteers"},
      {"measurement": "Evaluation B (efficacious)", "setting": "[2]; [15]", "value": "4 number of volunteers"},
      {"measurement": "Evaluation C (slightly efficacious)", "setting": "[2]; [15]", "value": "4 number of volunteers"},
      {"measurement": "Evaluation D (inefficacious)", "setting": "[2]; [15]", "value": "1 number of volunteers"},
      {"measurement": "Evaluation A (remarkably efficacious)", "setting": "[2]; [16]", "value": "3 number of volunteers"},
      {"measurement": "Evaluation B (efficacious)", "setting": "[2]; [16]", "value": "3 number of volunteers"},
      {"measurement": "Evaluation C (slightly efficacious)", "setting": "[2]; [16]", "value": "5 number of volunteers"},
      {"measurement": "Evaluation D (inefficacious)", "setting": "[2]; [16]", "value": "0 number of volunteers"},
      {"measurement": "Evaluation A (remarkably efficacious)", "setting": "[2]; [17]", "value": "3 number of volunteers"},
      {"measurement": "Evaluation B (efficacious)", "setting": "[2]; [17]", "value": "3 number of volunteers"},
      {"measurement": "Evaluation C (slightly efficacious)", "setting": "[2]; [17]", "value": "5 number of volunteers"},
      {"measurement": "Evaluation D (inefficacious)", "setting": "[2]; [17]", "value": "0 number of volunteers"},
      {"measurement": "volunteers who evaluated the lotions efficacious or more", "setting": "[2]; lotions with 2 to 20 parts by weight of saccharide", "value": "six"},
      {"measurement": "Collagen-production level", "setting": "NHDF cells [3]; [8]", "value": 203},
      {"measurement": "Collagen-production level", "setting": "NHDF cells [3]; saccharide 15.0 mg/ml + 50 μM AA-2G + chondroitin sulfate 1 mg/ml", "value": 256},
      {"measurement": "Collagen-production level", "setting": "NHDF cells [3]; saccharide 15.0 mg/ml + 50 μM AA-2G + hyaluronate and chondroitin sulfate 0.5 mg/ml each", "value": 344},
      {"measurement": "Collagen-production level", "setting": "NHDF cells [3]; saccharide 15.0 mg/ml + 50 μM AA-2G + sodium hyaluronate 1 mg/ml", "value": 276},
      {"measurement": "Collagen-production level", "setting": "NHDF cells [3]; saccharide 15.0 mg/ml alone, no AA-2G, no hyaluronate, no chondroitin sulfate", "value": 42}
    ]}
  ]
}
